Results reported in patent US20250092345A1, “INTER ORGAN PLATFORM FOR MICROPHYSIOLOGICAL SYSTEM ON A CHIP” (THE TRUSTEES OF COLUMBIA UNIVERSITY IN THE CITY OF NEW YORK, priority 2020, published 2025).

System: non-metastatic TE-ES (RD-ES)
Assay: Non-metastatic engineered ES bone tumor (TE-ES) in isolated culture, linsitinib
Assay type: cell-based, human
Text: The effects of linsitinib were studied in an experiment performed according to the 3-week treatment cycle used in the clinical trial (3 days of drug administration followed by 4 days without the drug, in 3 cycles), with luminescence signal serving as an indicator of cancer cell viability within the TE-ES.
Determining the effects of linsitinib on ES cells and osteoblasts within the engineered ES bone tumors across a 3-week clinical drug treatment regimen is shown in FIGS. 33A-33B. […] Supernatants were collected from each individual sample across the duration of the drug treatments and were analyzed for osteoblast function (OCN, OPN) and for cytotoxicity (LDH) (mean±s.e.m., n=3).
Two weeks following the initiation of osteogenic differentiation, aggregates of ES tumor cells were prepared as described previously, using 0.3×10^6 cells per aggregate. After 1 week of culture, corresponding to the end of bone tissue culture (3 weeks), the primary ES cell aggregates were placed into the engineered bone constructs (3 aggregates per construct, placed apart of each other). Tumor models were established for two different types of primary ES cells: non-metastatic (RD-ES) and metastatic (SK-N-MC). Tissue engineered RD-ES and SK-N-MC tumors were cultured in the RPMI and EMEM media, respectively, supplemented with 10% FBS and 1% penicillin/streptomycin. Bone constructs cultured without tumor cell aggregates (TE-bone) in RPMI and EMEM media were used as controls.
Specifically, linsitinib was dissolved at a 10 mM concentration in DMSO (Corning) and mixed in with the respective cell medium at a […] concentration unless otherwise noted. Vehicle treatments involved just the addition of DMSO at identical volumes as a control. Tissues were randomly assigned to experimental groups. Medium was changed every day.
To assess apoptosis, paraffin embedded tissue sections were first deparaffinized with CitriSolv, rehydrated with graded series of ethanol washes, and then stained with a Click-iT® TUNEL Alexa Fluor® imaging assay (Thermo Fisher Scientific). Following nuclear counterstaining with DAPI (Life Technologies), the TUNEL labelled slides were imaged with an IX81 inverted fluorescent microscope (Olympus) and a Pike F032B camera (ALLIED Vision), using NIS-Elements AR software, and processed using ImageJ (NIH). Four representative images per condition were then analyzed using the previously developed automatic TUNEL cell counter plugin for ImageJ to quantify DAPI^+ cells and TUNEL^+ cells.
Cell viability was analyzed using a previously established protocol. Cancer cell viability was measured for GFP-Luciferase labelled cancer cells using ONE-Glo luciferase substrate that was prepared according to manufacturer's protocol (Promega). Samples were collected following 3, 7, and 21 days cycles of linsitinib treatment. Where noted, longitudinal cell viability was also assessed using luminescence, though at the cost of signal strength. Briefly, in vivo grade VivoGlo™ Luciferin (Promega) was made at a 200× stock concentration (30 mg/ml) in water, added to sample culture media at a 1:200 dilution, and scanned using a spectrophotometer (Biotek). Some of the IC50 values were determined using cell viability data generated using an MTT assay (RealTime-Glo™ MT Cell Viability Assay, Promega) that were analyzed according to manufacturer's protocol.
Osteocalcin (OCN), osteopontin (OPN), and lactic acid dehydrogenase (LDH) secreted levels were all measured using a similar approach.

C[C@]1(O)C[C@@H](c2nc(-c3ccc4ccc(-c5ccccc5)nc4c3)c3c(N)nccn32)C1 [linsitinib]
response of cell viability (luminescence) to concentration (0, 1.2, 12 and 120 μM, 72 hours): dose-dependent response
apoptosis (TUNEL assay) (12 μM): increases in apoptosis
cell viability (luminescence) (12 μM): significant reduction
OCN secretion (12 μM regimen, 1:1 mixed media): increased only slightly
cancer cell population level maintained (luminescence) (12 μM regimen, 1:1 mixed media): ~30 % of their starting population
cytotoxicity (LDH secretion) (12 μM, 3-week regimen): spiked in both models immediately following drug administration, but significantly more so in the responsive, non-metastatic ES model
osteocalcin secretion (12 μM, 3-week regimen): decreased
cancer cell population (luminescence) across the clinical regimen (12 μM, 21-day treatment regimen): initial decrease in cancer cell population in the non-metastatic model and this population appeared unable to continue expanding
drug response (luminescence) (12 μM, after 3 days): significant drug response
osteopontin secretion (12 μM, throughout the 21 days): significantly increased
drug response of ES resistant-cell derived tumors (luminescence) (second 21-day 12 μM regimen on tumors from sorted resistant cells): significant initial drug response
